Structures can show the parent of a compound that is named as a salt.
System: IL-1α (cytokine expression in hTERT keratinocytes)
Test: In vitro assay: IL-1α in supernatants of IL-1β-treated hTERT keratinocytes (sandwich immunoassay, indexed to ATP viability)
Format: cell-based, human
Conditions: for Avg IL-1α measurement: hTERT keratinocytes, 18 hrs, 6 replicates; for IL-1α reduction compared in words (significance groupings): 500 ppm, IL-1β treated hTERT keratinocytes, >95% confidence
Description: The following in vitro assay test was conducted to determine the effect of White Tea Extract, Panthenol and Glycyrrhizinate salt on cytokine expression in hTERT keratinocytes:
BACKGROUND: hTERT-keratinocytes are a telomerase-immortalized neonatal epidermal keratinocyte line. Cell cultures of this type are known in the literature and have been used as models for multiple pathways as shown in the following references: Shay and Wright; Carcinogenesis, vol 26; no 5, pp 867-74, 2005; Bodner, et. al., Science, vol 279 pp 349-52, 1998; Ramirez, et. al., Oncogene, 22; pp 433-44, 2002. These cells display many features characteristic of normal primary keratinocytes and respond to normal growth controls in vitro.
TEST PROTOCOL: all measures were run in replicate (n=6).
To ensure proper levels of the biological active molecules for the in vitro study, dilution studies are conducted and ATP is analyzed for the highest non-cytotoxic concentration. White Tea Extract (H1615 WS, lot 98680094S-005) at a level of 500 ppm, Panthenol (lot 10063909S-018) at a level of 500 ppm, and Glycyrrhizinate salt (Barnet 25908N297) at a level of 500 ppm are used for this study. ATP analysis is described below.
ATP analysis is conducted using Cell Titer-Glo. The CellTiter-Glo Luminescent Cell Viability Assay is obtained from Promega Corporation (Madison, Wis.). This assay is a homogeneous method for determining the number of viable cells in culture based on quantitation of ATP present, signaling the presence of metabolically active cells. After the final treatment and supernatants collected, the CellTiter-Glo reagent is added. The reagent is then transferred to a BD Falcon (Franklin Lakes, N.J.) Microtest 96-well Assay Plate (black, flat bottom, reference 353945, lot 041151). Luminescence is read on a Perkin Elmer Fluorimeter (Wallac Envision 2101 Multilabel Reader). Relative luminescence units are plotted in percent control versus treatment concentration.
hTERT cells are cultured in complete EpiLife (Cascade Biologics, Portland, Oreg.) culture media in T75 culture flasks (Falcon, Becton Dickinson Labware, Franklin Lakes, N.J.) under 37° C./5% CO2 conditions. […] 2 ml of the cell suspension (density 20,000/cm^2) are plated in each well of a 6-well culture dish (Falcon) and cultured under 37° C./5% CO2 conditions overnight. A complete media exchange is performed and the cells are again cultured overnight under 37° C./5% CO2 conditions. The culture media is removed and 2 ml of treatment are placed in each well and the cells are cultured for 18 hrs. For all legs other than Control, IL-1β is added to the treatment at 1 nanogram per mL (for 2 nanograms per treatment). After the treatment period, the cell culture supernatants are collected and analyzed immediately for Interleukin-1α with an R&D Systems (Minneapolis, Minn.) kit which deploys the quantitative sandwich immunoassay technique. ATP is measured from cell lysates an indicator of viability. IL-1α is indexed to cell viability to ensure a proper reading of actual activity.
TESTING: This test was conducted and the analysis of the data is as follows. Statistical differences among treatments for IL-1α were analyzed via JMP using a log-transform before the analysis of variance. The log-transform ensures that the response data are normally distributed and have equal variance. […]

[1] = 500 ppm ingredient + IL-1β 1 nanogram per mL, IL-1α indexed to cell viability

## CC(C)(CO)[C@@H](O)C(=O)NCCCO [Panthenol]
[1]
  Avg IL-1α measurement: 24.41
  IL-1α reduction compared in words (significance groupings): not significantly different than the IL-1β treated cells

## C[C@H]1C[C@H]2[C@@H]3CCC4=CC(=O)C=C[C@]4(C)[C@@]3(F)[C@@H](O)C[C@]2(C)[C@@]1(O)C(=O)CCl [Clobetasol, reference compound]
4.5 ppm + IL-1β, positive control
  Avg IL-1α measurement: 14.29

## CC1(C)[C@@H](O[C@H]2O[C@H](C(=O)O)[C@@H](O)[C@H](O)[C@H]2O[C@H]2O[C@@H](C(=O)O)[C@H](O)[C@@H](O)[C@@H]2O)CC[C@]2(C)[C@H]3C(=O)C=C4[C@@H]5C[C@@](C)(C(=O)O)CC[C@]5(C)CC[C@@]4(C)[C@]3(C)CC[C@@H]12 [Glycyrrhizinate salt]
[1]
  Avg IL-1α measurement: 17.57
  IL-1α reduction compared in words (significance groupings): slightly higher IL-1α reduction

From patent US20120035557A1, “Personal Care Compositions Comprising A Multi-Active System For Down Regulating Cytokines Irritation” (priority 2010, published 2012)
